Assay results from US9745283B2, “Uracil derivatives as AXL and c-MET kinase inhibitors” (priority 2011, dated 2017).

Columns and labels:
[1] = molecular target: recombinant human baculovirus-expressed cMET (Homo sapiens (Human), UniProt P08581); assay: C-MET Kinase Assay (HTRF KinEASE); type: biochemical; conditions: average of two or more determinations; read-out: c-MET IC50
Method in brief: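 HTRF KinEASE format with recombinant human baculovirus-expressed cMET at 8 ng/mL, biotinylated peptide at 0.1 μM and ATP at 0.02 μM. IC50 came from percent control activity versus log concentration, fitted by nonlinear regression to a variable-slope sigmoidal equation with bottom fixed at 0 and top at 100.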

[2] = molecular target: recombinant human baculovirus-expressed AXL (Homo sapiens (Human), UniProt P30530); assay: AXL Kinase Assay (HTRF KinEASE); type: biochemical; conditions: average of two or more determinations

Compound | IC50 [1] [nM] | IC50 [2] [nM]
Cn1cc(C(=O)Nc2ccc(Oc3ccnc4cc5c(cc34)OCO5)c(F)c2)c(=O)n(-c2ccc(F)cc2)c1=O [Example 131, 3-(4-Fluoro-phenyl)-1-methyl-2,4-dioxo-1,2,3,4-tetrahydro-pyrimidine-5-carboxylic acid [4-([1,3]dioxolo[4,5-g]quinolin-8-yloxy)-3-fluoro-phenyl]-amide] | 10 to 100 | < 10
CCn1cc(C(=O)Nc2ccc(Oc3ccnc4cc(OC)c(OC)cc34)cc2OC)c(=O)n(-c2ccc(F)cc2)c1=O [Example 143, 1-Ethyl-3-(4-fluorophenyl)-2,4-dioxo-1,2,3,4-tetrahydropyrimidine-5-carboxylic acid [4-(6,7-dimethoxy-quinolin-4-yloxy)-2-methoxyphenyl]-amide] | < 10 | < 10
COc1cc(Oc2ccnc3cc(OC)c(OC)cc23)ccc1NC(=O)c1cn(C(C)C)c(=O)n(-c2ccc(F)cc2)c1=O [Example 145, 1-Isopropyl-3-(4-fluoro-phenyl)-2,4-dioxo-1,2,3,4-tetrahydro-pyrimidine-5-carboxylic acid [4-(6,7-dimethoxy-quinolin-4-yloxy)-2-methoxy-phenyl]-amide] | 10 to 100 | < 10
COc1cc2nccc(Oc3ccc(NC(=O)c4cn(C)c(=O)n(-c5ccc(F)cc5)c4=O)c(F)c3F)c2cc1OC [Example 146, 1-Methyl-3-(4-fluorophenyl)-2,4-dioxo-1,2,3,4-tetrahydro-pyrimidine-5-carboxylic acid [4-(6,7-dimethoxy-quinolin-4-yloxy)-2,3-difluoro-phenyl]-amide] | < 10 | < 10
CCn1cc(C(=O)Nc2ccc(Oc3ccnc4cc(OC)c(OC)cc34)c(F)c2F)c(=O)n(-c2ccc(F)cc2)c1=O [Example 147, 1-Ethyl-3-(4-fluoro-phenyl)-2,4-dioxo-1,2,3,4-tetrahydro-pyrimidine-5-carboxylic acid [4-(6,7-dimethoxy-quinolin-4-yloxy)-2,3-difluoro-phenyl]-amide] | < 10 | < 10
CCn1cc(C(=O)Nc2ccc(Oc3ccnc4cc(OC)c(OC)cc34)c(C(F)(F)F)c2)c(=O)n(-c2ccc(F)cc2)c1=O [Example 159, 1-Ethyl-3-(4-fluoro-phenyl)-2,4-dioxo-1,2,3,4-tetrahydro-pyrimidine-5-carboxylic acid [4-(6,7-dimethoxy-quinolin-4-yloxy)-3-trifluoromethyl-phenyl]-amide] | 10 to 100 | < 10
CCn1nc(C(=O)Nc2ccc(Oc3ccnc4cc(OC)ccc34)c(F)c2)c(=O)n(-c2ccc(F)cc2)c1=O [Example 171, 2-Ethyl-4-(4-fluoro-phenyl)-3,5-dioxo-2,3,4,5-tetrahydro-1,2,4-triazine-6-carboxylic acid [3-fluoro-4-(7-methoxy-quinolin-4-yloxy)-phenyl]-amide] | < 10 | < 10

Further lines, results first:

IC50 [1] [nM] | IC50 [2] [nM] | Compound
10 to 100 | < 10 | COc1cc(Oc2ccnc3cc(OC)c(OC)cc23)ccc1NC(=O)c1cn(C)c(=O)n(-c2ccc(F)cc2)c1=O [Example 144, 1-Methyl-3-(4-fluoro-phenyl)-2,4-dioxo-1,2,3,4-tetrahydro-pyrimidine-5-carboxylic acid [4-(6,7-dimethoxy-quinolin-4-yloxy)-2-methoxy-phenyl]-amide]
< 10 | < 10 | COc1cc2nccc(Oc3ccc(NC(=O)c4c[nH]c(=O)n(-c5ccc(F)cc5)c4=O)cc3C)c2cc1OC [Example 149, 3-(4-Fluoro-phenyl)-2,4-dioxo-1,2,3,4-tetrahydro-pyrimidine-5-carboxylic acid [4-(6,7-dimethoxy-quinolin-4-yloxy)-3-methyl-phenyl]-amide]
10 to 100 | < 10 | COc1cc2nccc(Oc3ccc(NC(=O)c4c[nH]c(=O)n(-c5ccc(F)cc5)c4=O)cc3OC)c2cc1OC [Example 150, 3-(4-Fluoro-phenyl)-2,4-dioxo-1,2,3,4-tetrahydro-pyrimidine-5-carboxylic acid [4-(6,7-dimethoxy-quinolin-4-yloxy)-3-methoxy-phenyl]-amide]
10 to 100 | < 10 | CCn1cc(C(=O)Nc2ccc(Oc3ccnc4cc(OC)c(OC)cc34)c(OC)c2)c(=O)n(-c2ccc(F)cc2)c1=O [Example 151, 1-Ethyl-3-(4-fluoro-phenyl)-2,4-dioxo-1,2,3,4-tetrahydro-pyrimidine-5-carboxylic acid [4-(6,7-dimethoxy-quinolin-4-yloxy)-3-methoxy-phenyl]-amide]
